# Measurements published in PubChem BioAssay (NCI).
#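 In this assay, cells in 96-well plates receive the compound at five concentrations for 48 hours. Endpoints are linearly interpolated between the surrounding concentrations. At the GI50, growth is halved. The concentration for full growth arrest is given as TGI.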
# Columns and labels:
# Assay in all cases: NCI anticancer screen, dose series, 48 h
# UACC-257 melanoma = system: UACC-257 melanoma
# UO-31 renal = system: UO-31 renal
# MDA-MB-435 = system: MDA-MB-435
# CAKI-1 renal = system: CAKI-1 renal
# A549 NSCLC = system: A549 NSCLC
# 786-0 renal = system: 786-0 renal
# SN12C renal = system: SN12C renal
# MDA-N = system: MDA-N
# SF-268 CNS = system: SF-268 CNS
# HCT-116 colon = system: HCT-116 colon
# NCI-H522 lung = system: NCI-H522 lung
Compound,TGI (UACC-257 melanoma) [µM],TGI (UO-31 renal) [µM],TGI (MDA-MB-435) [µM],TGI (CAKI-1 renal) [µM],TGI (A549 NSCLC) [µM],TGI (786-0 renal) [µM],TGI (SN12C renal) [µM],TGI (MDA-N) [µM],TGI (SF-268 CNS) [µM],TGI (HCT-116 colon) [µM],TGI (NCI-H522 lung) [µM],GI50 (UO-31 renal) [µM],GI50 (MDA-MB-435) [µM],GI50 (CAKI-1 renal) [µM],GI50 (SN12C renal) [µM],GI50 (SF-268 CNS) [µM],GI50 (UACC-257 melanoma) [µM],GI50 (A549 NSCLC) [µM],GI50 (NCI-H522 lung) [µM],GI50 (HCT-116 colon) [µM]
S=C1N(c2ccc(Cl)cc2)C2=C(N=Nc3ccccc3)C(=Nc3ccccc3S2)N1c1ccccn1,30.4,21.7,26.7,26.7,29.1,28.1,25,30.1,19.6,27.1,,,,,,,,,,
N#C/C=C1\C=CC(O)C(O)C1OC1OC(CO)C(O)C(O)C1O (stereo not drawn),> 100,> 100,> 100,> 100,> 100,> 100,> 100,> 100,> 100,> 100,> 100,,,,,,,,,
O=S(=O)(O)c1c(N=Nc2c(O)ccc3ccccc23)ccc2ccccc12,> 100,> 100,> 100,> 100,> 100,> 100,> 100,> 100,> 100,> 100,> 100,,,,,,,,,
O=S(O)c1cc(Cl)cc(Cl)c1O,> 100,> 100,,,,,> 100,,> 100,> 100,> 100,,,,,,,,,
CN(C)Cc1ccc(C(=O)Nc2ccc3ncnc(Nc4ccc(Oc5cccc(F)c5)c(Cl)c4)c3c2)cc1,,2.59,3.25,3.15,,,2.81,,3.28,,,1.3,1.74,1.68,1.44,1.53,,,,
S=C(Nc1ccc(Cl)cc1)Nc1ccc(Cl)cc1 (tested in a mixture with another compound),6.23,34.9,7.86,7.08,> 100,,7.32,,15.8,3.07,4.37,2.26,2.45,2.15,2.49,3.2,2.65,2.38,1.39,1.46
CC(=O)OCC1OC(O[C@@H]2c3c(O)c4c(c(O)c3C3=C(NN(c5ccc([N+](=O)[O-])cc5[N+](=O)[O-])[Se]3=O)[C@@]2(C)O)C(=O)c2ccccc2C4=O)C(OC(C)=O)C(OC(C)=O)C1OC(C)=O (stereo partly drawn),1.49,0.548,0.332,0.722,2.07,0.296,0.552,0.753,0.555,0.295,0.29,,,,,,,,,
Fc1ccc(-c2ccc(-c3nnc(-c4cc(F)c(Cl)cc4Cl)o3)o2)cc1Cl,> 100,> 100,> 100,89.9,> 100,,> 100,,> 100,,> 100,34.7,34.6,33.7,33.3,33,46.1,37.3,38.7,
O=C(/C=C/c1ccc(O)cc1)NCCc1ccc(O)cc1,> 12.5,> 12.5,> 12.5,> 12.5,> 12.5,> 12.5,> 12.5,> 12.5,> 12.5,> 12.5,> 12.5,,,,,,,,,
CC(O)C(O)C(N)CC=O (stereo not drawn),> 500,> 500,,> 500,> 500,,> 500,,> 500,> 500,> 500,,,,,,,,,
COc1ccc(SC(C)(SC)c2ccccn2)c(OC)n1 (stereo not drawn),> 100,> 100,> 100,> 100,> 100,> 100,> 100,> 100,> 100,> 100,> 100,,,,,,,,,
COc1cccc(-c2nc3c(C(=O)NCCN(C)C)cccc3[nH]2)c1,31.3,29.1,,> 96,46.2,,> 70.6,,> 41.7,44.2,34,,,,,,,,,
Nc1nc(SCc2ccccc2)c2ncn(Cc3ccccc3)c2n1,> 100,> 100,> 100,> 86.5,> 100,> 100,> 100,> 100,> 100,> 100,> 100,,,,,,,,,
C[N+]1(C)CCC(C#N)(c2ccccc2)CC1,> 100,> 100,,> 100,> 100,> 100,,> 100,> 100,> 100,,,,,,,,,,
O=S(=O)(c1ccc(I)cc1)N(c1ccccc1)S(=O)(=O)C(F)(F)C(F)(F)C(F)(F)C(F)(F)F,> 100,> 100,> 100,98.2,> 100,> 100,> 100,> 100,,44.6,84.9,,,,,,,,,
[C-]#[O+].[C-]#[O+].[Ir].[O-]c1cccc2cccnc12,> 100,> 100,,> 100,> 100,,> 100,,,,,> 100,,> 100,> 100,,> 100,> 100,,
C=C1C(=O)OC2C1C(OC(=O)/C(C)=C/C)CC1(C)C(=O)CCC(=C)C21 (stereo not drawn),28.5,13.3,> 58.8,17.9,43.7,20.9,4.09,18.1,33.4,31.2,7.63,,,,,,,,,
CC1(C)COC(/C=C/C2=NC(C)(C)CO2)=N1,> 100,64.3,82.9,23.4,> 100,,9.89,48.7,75.8,25.9,13.4,,,,,,,,,
O=C1c2ccccc2-c2ccc(N=[N+]([O-])c3ccc4c(c3)C(=O)c3ccccc3-4)cc21,> 100,> 100,> 100,> 100,> 100,> 100,> 100,> 100,> 100,> 100,> 100,,,,,,,,,
O=C(O)C1CC(c2ccccc2)=NN1c1ccccc1 (stereo not drawn),> 100,> 100,> 100,> 100,> 100,> 100,> 100,> 100,> 100,> 100,> 100,,,,,,,,,
